“Also recorded” adds a separate entry of the source.
Legend:
[1] = target: CYP2C19 (Homo sapiens, UniProt P33261); test: Fluorescence-based CYP assay, recombinant CYP2C19, substrate DBF; assay type: in vitro ADME
Experimental: (§1) These assays were performed by methods similar to those described by VanAlstine and Hough, Stresser et al., Wulff et al., Henderson et al., and Crespi et al., with minor modifications. All incubations were performed in a final volume of 200 µL of 50 mM potassium phosphate buffer at pH 7.4 containing 1% acetonitrile. CYP inhibitor studies were performed according to the parameters of Table 1. Substrate concentrations were chosen to be near known Km values. As described in the references cited, two different NADPH regenerating systems were used depending on the substrates used (Table 1). Inhibitors were added to either “low” NADPH-regenerating system (final concentration of 8.1 µM NADP^+, 0.4 mM glucose-6-phosphate, 0.4 mM magnesium chloride, 0.2 U/mL glucose-6-phosphate dehydrogenase) or to “high” NADPH-regenerating system (final concentration of 1.3 mM NADP^+, 3.3 mM glucose-6-phosphate, 3.3 mM magnesium chloride, 0.4 U/mL glucose-6-phosphate dehydrogenase) in a total of 0.1 mL buffer. […] For assays utilizing “low” regenerating systems, product formation was monitored continuously by a Victor3 1420 Multilabel Plate Counter at the designated wavelengths (Table 1). […] Product formation was then measured at the designated wavelengths (Table 1). […]

[2] = target: T1, CYP2C11 (Rattus norvegicus, UniProt P08683); test: Fluorescence-based CYP assay, recombinant CYP2C11, substrate DBF; assay type: in vitro ADME
T1 sequence (P08683 1-500): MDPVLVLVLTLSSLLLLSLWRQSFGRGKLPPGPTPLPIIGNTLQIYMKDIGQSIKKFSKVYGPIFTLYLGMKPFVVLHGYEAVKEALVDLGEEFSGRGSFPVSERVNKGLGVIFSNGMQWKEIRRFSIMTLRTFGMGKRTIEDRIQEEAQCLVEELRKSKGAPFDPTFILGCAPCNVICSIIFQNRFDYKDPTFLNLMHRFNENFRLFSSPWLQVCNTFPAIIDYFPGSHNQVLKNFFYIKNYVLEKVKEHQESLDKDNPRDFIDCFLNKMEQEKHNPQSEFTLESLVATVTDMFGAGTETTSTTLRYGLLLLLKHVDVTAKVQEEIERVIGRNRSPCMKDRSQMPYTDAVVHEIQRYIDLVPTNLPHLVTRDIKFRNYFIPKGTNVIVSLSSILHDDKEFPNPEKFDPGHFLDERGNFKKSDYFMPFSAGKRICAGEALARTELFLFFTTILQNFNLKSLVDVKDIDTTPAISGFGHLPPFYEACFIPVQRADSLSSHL
Experimental: as §1

[3] = target: T2, CYP2B1 (Rattus norvegicus, UniProt P00176); test: Fluorescence-based CYP assay, recombinant CYP2B1, substrate EFC; assay type: in vitro ADME
T2 sequence (P00176 1-491): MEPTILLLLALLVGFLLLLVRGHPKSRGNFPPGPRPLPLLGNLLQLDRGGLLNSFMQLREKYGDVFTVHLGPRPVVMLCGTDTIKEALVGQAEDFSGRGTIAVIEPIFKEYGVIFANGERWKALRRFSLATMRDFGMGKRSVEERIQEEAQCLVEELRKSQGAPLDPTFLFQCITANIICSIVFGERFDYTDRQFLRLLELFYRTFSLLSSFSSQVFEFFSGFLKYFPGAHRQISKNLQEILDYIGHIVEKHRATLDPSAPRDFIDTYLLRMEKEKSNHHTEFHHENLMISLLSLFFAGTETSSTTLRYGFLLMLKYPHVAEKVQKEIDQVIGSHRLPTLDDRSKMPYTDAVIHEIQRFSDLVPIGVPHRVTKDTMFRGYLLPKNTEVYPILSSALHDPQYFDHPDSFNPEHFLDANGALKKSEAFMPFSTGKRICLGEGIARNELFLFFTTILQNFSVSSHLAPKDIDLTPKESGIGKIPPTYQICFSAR
Experimental: as §1

[4] = target: T3, CYP19A1h (Homo sapiens, UniProt P11511); test: Fluorescence-based CYP assay, recombinant CYP19A1h, substrate DBF; assay type: in vitro ADME
T3 sequence (P11511 1-503): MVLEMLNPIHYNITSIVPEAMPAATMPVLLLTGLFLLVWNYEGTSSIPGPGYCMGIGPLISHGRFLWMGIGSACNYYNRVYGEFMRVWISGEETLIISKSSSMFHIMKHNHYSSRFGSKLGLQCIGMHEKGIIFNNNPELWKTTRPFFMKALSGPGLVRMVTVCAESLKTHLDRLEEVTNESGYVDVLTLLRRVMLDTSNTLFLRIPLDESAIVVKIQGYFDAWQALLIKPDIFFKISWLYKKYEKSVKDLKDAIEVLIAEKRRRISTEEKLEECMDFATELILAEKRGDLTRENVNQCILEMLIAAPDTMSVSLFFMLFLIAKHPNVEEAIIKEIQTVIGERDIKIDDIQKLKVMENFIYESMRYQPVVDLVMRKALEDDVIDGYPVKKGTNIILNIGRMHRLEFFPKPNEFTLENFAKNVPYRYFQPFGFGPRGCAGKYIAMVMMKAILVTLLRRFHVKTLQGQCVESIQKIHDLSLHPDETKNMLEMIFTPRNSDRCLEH
Experimental: These assays were performed by methods similar to those described by VanAlstine and Hough, Stresser et al., Wulff et al., Henderson et al., and Crespi et al., with minor modifications. All incubations were performed in a final volume of 200 µL of 50 mM potassium phosphate buffer at pH 7.4 containing 1% acetonitrile. CYP inhibitor studies were performed according to the parameters of Table 1. Substrate concentrations were chosen to be near known Km values. As described in the references cited, two different NADPH regenerating systems were used depending on the substrates used (Table 1). […] Samples were pre-incubated at 37°C for the designated times, and the reactions were initiated with the addition of a substrate and enzyme mixtures (Table 1). […] For the assays utilizing the “high” regenerating system, enzyme reactions were terminated at the designated time by the addition of 75 µL of 2N NaOH, followed by a 2 h post-incubation at 37°C. Product formation was then measured at the designated wavelengths (Table 1). For the “low” regenerating system assays, blanks and standards were prepared in 0.1 mL buffer without the regenerating system. For the “high” regenerating system assays, blanks and standards containing 0.1 mL of buffer received 75 µL of 2N NaOH following pre-incubation.

[5] = target: CYP3A4 (Homo sapiens, UniProt P08684); design: method as in PMID 10884437; conditions: 10 µM; cited from earlier work
Chain of CYP3A4 (P08684 whole entry): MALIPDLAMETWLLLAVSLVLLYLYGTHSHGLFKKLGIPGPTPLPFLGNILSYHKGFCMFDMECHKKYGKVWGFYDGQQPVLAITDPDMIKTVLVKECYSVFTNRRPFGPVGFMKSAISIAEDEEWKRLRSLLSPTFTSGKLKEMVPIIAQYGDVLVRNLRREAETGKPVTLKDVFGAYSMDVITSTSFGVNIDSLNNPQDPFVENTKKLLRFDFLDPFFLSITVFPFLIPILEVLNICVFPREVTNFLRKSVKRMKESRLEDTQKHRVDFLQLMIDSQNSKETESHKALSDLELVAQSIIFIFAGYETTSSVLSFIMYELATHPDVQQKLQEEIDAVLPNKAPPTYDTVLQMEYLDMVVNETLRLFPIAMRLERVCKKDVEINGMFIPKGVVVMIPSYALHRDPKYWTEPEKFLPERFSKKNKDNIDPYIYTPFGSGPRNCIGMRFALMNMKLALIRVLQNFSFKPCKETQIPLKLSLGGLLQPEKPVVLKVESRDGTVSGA

Chain of CYP2C19 (P33261 whole entry): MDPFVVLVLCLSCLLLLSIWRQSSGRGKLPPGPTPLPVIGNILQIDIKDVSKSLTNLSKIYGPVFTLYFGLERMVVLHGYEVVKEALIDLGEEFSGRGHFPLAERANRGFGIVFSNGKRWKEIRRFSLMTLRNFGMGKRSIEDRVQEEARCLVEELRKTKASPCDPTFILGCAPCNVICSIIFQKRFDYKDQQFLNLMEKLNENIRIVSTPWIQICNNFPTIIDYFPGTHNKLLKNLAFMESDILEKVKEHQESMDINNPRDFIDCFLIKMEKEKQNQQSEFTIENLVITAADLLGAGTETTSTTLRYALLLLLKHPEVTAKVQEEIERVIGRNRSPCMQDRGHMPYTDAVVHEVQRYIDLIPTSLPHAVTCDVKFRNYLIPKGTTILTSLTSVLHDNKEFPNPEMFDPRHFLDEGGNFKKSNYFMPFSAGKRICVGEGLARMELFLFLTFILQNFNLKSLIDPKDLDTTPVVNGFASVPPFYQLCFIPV

## Clc1ccccc1C(c1ccccc1)(c1ccccc1)n1ccnc1 [Clotrimazole]
[1]; recombinant enzyme
  Inhibition of CYP2C19 (in words): potent inhibitor
[2]; positive control
  Inhibition of CYP2C11 (in words): potent inhibitor
[3]; positive control
  Inhibition of CYP2B1 (in words): potent inhibitor

## Clc1ccccc1C(c1ccccc1)(c1ccccc1)n1cccn1 [TRAM-34, 1-[(2-chlorophenyl)diphenylmethyl]-1H-pyrazole]
[1]
  IC50: 1.8 µM
[2]
  IC50: 12.6 µM
[4]
  IC50: > 80 µM
[4]; up to 80 µM
  Inhibition of CYP19A1h (in words): little to no inhibition; also recorded: no inhibitory effects
[5]
  Inhibition of CYP3A4 with BFC as substrate (in words): did not inhibit
[3]
  IC50: 3 µM

From article PMC3646888 (PLoS ONE, 2013)
